Test in all cases: growth of human tumour cells (NCI), 48 h
The subject of test [1] is OVCAR-8 ovarian.
The subject of test [2] is MOLT-4 leukemia.
Test [3] has as its system UACC-257 melanoma.
Test [4] deals with SNB-75 CNS.
The test system of test [5] is 786-0 renal.
Test [6] has as its system SF-295 CNS.
Test [7] deals with NCI-H522 lung.
Test [8] concerns MDA-MB-435.
The test system of test [9] is COLO 205 colon.
For test [10], the system named is SR leukemia.

Structures are written as SMILES.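 How tested: cells in 96-well plates exposed to compound for 48 hours at five concentrations. Here, GI50 denotes the concentration required for 50% inhibition of growth. TGI is the concentration that stops growth completely.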

For the compound `CCOc1ccc2c(-c3ccnc(Nc4cccc(C(F)(F)F)c4)n3)cnn2n1`, the GI50 is 5.44 µM in test [1]; more than 25 µM in test [2]; more than 25 µM in [3]; 9.81 µM in test [4]; 7.3 µM in [5]; more than 25 µM in test [6]. In addition, the GI50 is 6.33 µM in test [7], 9.93 µM in [8] and more than 25 µM in test [9]. Also, the TGI in test [1] was 11.7 µM; in test [2], more than 25 µM; in test [3], more than 25 µM; in test [4], more than 25 µM; in test [5], more than 19.6 µM; in test [6], more than 25 µM. Further, the figures for the TGI in [7], in test [8] and in [9] were more than 23.1 µM, more than 25 µM and more than 25 µM, respectively.
As to `CC(=O)OC1C(O)COC(Oc2c(C)c3c4c(c2O)[C@@H](C)CC[C@@H]4[C@@H](C)C[C@H]3C=C(C)C)C1O` (some centres undefined), the GI50 is 23 µM in test [1]; 4.89 µM in [2]; 3.87 µM in test [10]; 27 µM in test [5]; 18.1 µM in [6]; 30.9 µM in test [7]. The GI50 in [8] was 24 µM; in [9] it was 21.5 µM. Moreover, the TGI in [1] is 49.8 µM; in test [2] it was 28.5 µM; in test [10] it was 19.1 µM; in test [5], more than 100 µM; in test [6] it was 35.7 µM; in test [7], more than 100 µM. Further, the values for the TGI in test [8] and in test [9] were 67.4 µM and 50.5 µM, respectively.
As to `Nc1nc(N)c2ncn(Cc3c(Cl)cccc3Cl)c2n1`, the TGI is more than 100 µM in test [1]; more than 100 µM in [2]; more than 100 µM in test [3]; 48.7 µM in [4]; more than 100 µM in test [5]; more than 100 µM in [6]. Besides, the TGI in [7], in [8] and in [9] was more than 100 µM each time.
As for `Cn1c(-c2c(N)n(Cc3ccc(Cl)cc3)c3nc(C#N)c(C#N)nc23)nc2ccccc21`, the GI50 was 5.37 µM in [1]; 8.26 µM in test [10]; 13.5 µM in test [3]; 7.69 µM in test [5]; 6.28 µM in test [6]; 2.83 µM in test [7]. Moreover, the results for the GI50 in [8] and in [9] were 7.63 µM and 3.13 µM, respectively. Further, the TGI in [1] was 23.4 µM; in test [10] it was more than 50 µM; in test [3] it was more than 50 µM; in test [5], 17.4 µM; in test [6], 40.5 µM; in test [7], 15.6 µM. Moreover, the TGI is more than 50 µM in test [8] and 16.4 µM in test [9].
Take `O=C(Oc1ccccc1Cl)c1cccnc1Nc1ccnc(C(F)(F)F)c1`: the GI50 in [1] was 14.7 µM; in test [2], 2.52 µM; in [3], 21.4 µM; in test [5] it was 14.7 µM; in test [6], 21.3 µM; in test [7], 6.6 µM. Further, the figures for the GI50 in test [8] and in test [9] were 4.53 µM and 26.6 µM, respectively. Also, the TGI in test [1] is 47 µM; in test [2], 8.97 µM; in test [3] it was 63.5 µM; in test [5] it was 31.4 µM; in [6], 52.5 µM; in test [7] it was 23.3 µM. Moreover, the TGI turned out to be 18.3 µM in [8] and 84.5 µM in [9].
Turning to `COc1ccc(OC)c(-c2cn3nc(-c4c[nH]c5ccc(Br)cc45)sc3n2)c1`, the GI50 is 3.01 µM in test [1]; 7.45 µM in test [3]; 3.72 µM in [4]; 2.16 µM in [5]; 4.7 µM in [6]; 1.98 µM in [7]. Also, in test [8], the GI50 was 2.42 µM. Also, the TGI was 9.3 µM in test [1]; 30.7 µM in [3]; 24.3 µM in test [4]; 4.57 µM in test [5]; 16.3 µM in test [6]; 4.81 µM in test [7]. This compound yielded a TGI in test [8] of 5.83 µM.
Take `C=C(C)[C@@H]1CC[C@]2(C)[C@H](CC=C3[C@@H]4CC(C)(C)CC[C@]4(C(=O)OC)CC[C@]32C)[C@@]1(C)CC/C(N)=N/O`: the GI50 is 2.27 µM in test [1]; 2.09 µM in test [2]; 1.81 µM in test [10]; 2.01 µM in [3]; 1.76 µM in test [5]; 1.79 µM in [6]. Besides, the GI50 is 1.58 µM in [7], 1.78 µM in test [8] and 2.46 µM in [9]. The TGI in [1] was determined as 6.29 µM; in test [2], 5.25 µM; in test [10], 5.2 µM; in test [3] it was 5.34 µM; in test [5], 3.19 µM; in test [6], 4.01 µM. For the same compound, the TGI is 4.12 µM in test [7], 3.65 µM in test [8] and 6.54 µM in test [9].
For the compound `c1ccc(CN2CCC3(CC2)ONC2=NCCN23)cc1`, the GI50 in test [1] was 60.9 µM; in test [2] it was 47.3 µM; in [3] it was more than 100 µM; in test [4] it was more than 100 µM; in test [5], 42.6 µM; in test [6] it was more than 100 µM. Further, the GI50 in [7] is 37.8 µM; in test [8], 91.5 µM; in test [9], 50.4 µM. For the same compound, the TGI in test [1], in test [2], in test [3], in [4], in [5] and in [6] was more than 100 µM throughout. The TGI in test [7], in [8] and in test [9] was more than 100 µM each time.
With `S=C(S)NCCCn1ccnc1`, the TGI in test [1], in test [2], in test [10], in test [3], in test [5] and in test [6] was more than 100 µM throughout. Besides, the TGI in test [7], in test [8] and in test [9] was more than 100 µM in each case.

Source of the values: PubChem BioAssay (NCI).
